Source: patent US11977086B2, “Biomarker detection from breath samples” (Hound Labs, Inc., priority 2019, dated 2024)

What was measured:
[1] = THC in breath after smoking, samples collected with a Hound Labs device and analyzed by mass spectrometry; assay type: in vivo, human
[2] = pH>8; cited from earlier work
[3] = compared with THC; cited from earlier work

| SMILES | measured amount of THC in breath sample indicative of recent usage ([1]; breath sample of 0.5 liters, usage within the three hours prior to collection) | baseline breath THC, maximum ([1]; chronic or frequent smokers who have not smoked for several hours) [pg/5 L breath] | maximum baseline breath THC per liter ([1]; chronic users, 12 pg/5 L converted to per liter) [pg/L] | time THC is detected in breath after smoking ([1]; on average, 430 tests, smoking indoors or outdoors, mass spectrometry) [h] | solubility versus pH [2] | resistance to oxidation [3] |
| --- | --- | --- | --- | --- | --- | --- |
| CCCCCc1cc(O)c2c(c1)OC(C)(C)[C@@H]1CCC(C)=C[C@@H]21 [THC, tetrahydrocannabinol] | 1-10 picograms (pg) | ≤ 12 | ≤ 2.4 | 2 to 3 | higher solubility | – |
| CCCCCc1cc2c(c(O)c1C(=O)O)[C@@H]1C=C(C)CC[C@H]1C(C)(C)O2 [THCA] | – | – | – | – | – | higher resistance to oxidation |
